Tested on: Crude diglycosidase
Assay: Examination of pH in the conversion into isoflavone aglycons by diglycosidase using soybean materials
Assay type: biochemical, Penicillium multicolor IAM7153
Conditions: for Decomposition efficiency of glycitin family in roasted soy flour / Decomposition efficiency of glycitin family in soymilk: 55° C.
In short: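 HPLC detection of isoflavone glycosides and aglycons after ethanol quench at 0, 1, 3 and 6 h. Reactions ran at 55° C over pH 2–11, with crude diglycosidase (enzyme solution at 1.88 AU/mL) added to suspended roasted soy flour, soymilk, defatted soybean or concentrated soy protein.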

[1] = pH6.6, heat treatment of enzyme: no, reaction time 0 h
[2] = pH6.6, heat treatment of enzyme: no, reaction time 1 h
[3] = pH6.6, heat treatment of enzyme: no, reaction time 3 h
[4] = pH6.6, heat treatment of enzyme: no, reaction time 6 h
[5] = pH6.6, heat treatment of enzyme: yes, reaction time 6 h

- Decomposition efficiency of glycitin family in concentrated soybean protein (pH1.6, heat treatment of enzyme: no, reaction time 0 h): 52.3%
- Decomposition efficiency of glycitin family in concentrated soybean protein (pH1.6, heat treatment of enzyme: no, reaction time 1 h): 52.9%
- Decomposition efficiency of glycitin family in concentrated soybean protein (pH1.6, heat treatment of enzyme: no, reaction time 3 h): 54.3%
- Decomposition efficiency of glycitin family in concentrated soybean protein (pH1.6, heat treatment of enzyme: no, reaction time 6 h): 56.1%
- Decomposition efficiency of glycitin family in concentrated soybean protein (pH1.6, heat treatment of enzyme: yes, reaction time 6 h): 57.9%
- Decomposition efficiency of glycitin family in roasted soy flour (pH2, heat treatment of enzyme no, reaction time 0 h): 56.8
- Decomposition efficiency of glycitin family in roasted soy flour (pH2, heat treatment of enzyme no, reaction time 1 h): 56.6
- Decomposition efficiency of glycitin family in roasted soy flour (pH2, heat treatment of enzyme no, reaction time 3 h): 56.3
- Decomposition efficiency of glycitin family in roasted soy flour (pH2, heat treatment of enzyme no, reaction time 6 h): 54.4
- Decomposition efficiency of glycitin family in roasted soy flour (pH2, heat treatment of enzyme yes, reaction time 6 h): 54.4
- Decomposition efficiency of glycitin family in soymilk (pH2.3, heat treatment of enzyme no, reaction time 0 h): 50.2
- Decomposition efficiency of glycitin family in soymilk (pH2.3, heat treatment of enzyme no, reaction time 1 h): not detected
- Decomposition efficiency of glycitin family in soymilk (pH2.3, heat treatment of enzyme no, reaction time 3 h): not detected
- Decomposition efficiency of glycitin family in soymilk (pH2.3, heat treatment of enzyme no, reaction time 6 h): not detected
- Decomposition efficiency of glycitin family in soymilk (pH2.3, heat treatment of enzyme yes, reaction time 6 h): 51.7
- Decomposition efficiency of glycitin family in defatted soybean (pH2.6, heat treatment of enzyme: no, reaction time 0 h): not detected
- Decomposition efficiency of glycitin family in defatted soybean (pH2.6, heat treatment of enzyme: no, reaction time 1 h): not detected
- Decomposition efficiency of glycitin family in defatted soybean (pH2.6, heat treatment of enzyme: no, reaction time 3 h): not detected
- Decomposition efficiency of glycitin family in defatted soybean (pH2.6, heat treatment of enzyme: no, reaction time 6 h): not detected
- Decomposition efficiency of glycitin family in defatted soybean (pH2.6, heat treatment of enzyme: yes, reaction time 6 h): not detected
- Decomposition efficiency of glycitin family in concentrated soybean protein (pH2.7, heat treatment of enzyme: no, reaction time 0 h): 52.3%
- Decomposition efficiency of glycitin family in concentrated soybean protein (pH2.7, heat treatment of enzyme: no, reaction time 1 h): 38.0%
- Decomposition efficiency of glycitin family in concentrated soybean protein (pH2.7, heat treatment of enzyme: no, reaction time 3 h): 37.2%
- Decomposition efficiency of glycitin family in concentrated soybean protein (pH2.7, heat treatment of enzyme: no, reaction time 6 h): 33.7%
- Decomposition efficiency of glycitin family in concentrated soybean protein (pH2.7, heat treatment of enzyme: yes, reaction time 6 h): 52.7%
- Decomposition efficiency of glycitin family in roasted soy flour (pH3, heat treatment of enzyme no, reaction time 0 h): 56.8
- Decomposition efficiency of glycitin family in roasted soy flour (pH3, heat treatment of enzyme no, reaction time 1 h): not detected
- Decomposition efficiency of glycitin family in roasted soy flour (pH3, heat treatment of enzyme no, reaction time 3 h): not detected
- Decomposition efficiency of glycitin family in roasted soy flour (pH3, heat treatment of enzyme no, reaction time 6 h): not detected
- Decomposition efficiency of glycitin family in roasted soy flour (pH3, heat treatment of enzyme yes, reaction time 6 h): 55.1
- Decomposition efficiency of glycitin family in defatted soybean (pH3.4, heat treatment of enzyme: no, reaction time 0 h): not detected
- Decomposition efficiency of glycitin family in defatted soybean (pH3.4, heat treatment of enzyme: no, reaction time 1 h): not detected
- Decomposition efficiency of glycitin family in defatted soybean (pH3.4, heat treatment of enzyme: no, reaction time 3 h): not detected
- Decomposition efficiency of glycitin family in defatted soybean (pH3.4, heat treatment of enzyme: no, reaction time 6 h): not detected
- Decomposition efficiency of glycitin family in defatted soybean (pH3.4, heat treatment of enzyme: yes, reaction time 6 h): not detected
- Decomposition efficiency of glycitin family in soymilk (pH3.5, heat treatment of enzyme no, reaction time 0 h): 50.2
- Decomposition efficiency of glycitin family in soymilk (pH3.5, heat treatment of enzyme no, reaction time 1 h): not detected
- Decomposition efficiency of glycitin family in soymilk (pH3.5, heat treatment of enzyme no, reaction time 3 h): not detected
- Decomposition efficiency of glycitin family in soymilk (pH3.5, heat treatment of enzyme no, reaction time 6 h): not detected
- Decomposition efficiency of glycitin family in soymilk (pH3.5, heat treatment of enzyme yes, reaction time 6 h): 54.2
- Decomposition efficiency of glycitin family in concentrated soybean protein (pH3.7, heat treatment of enzyme: no, reaction time 0 h): 52.4%
- Decomposition efficiency of glycitin family in concentrated soybean protein (pH3.7, heat treatment of enzyme: no, reaction time 1 h): not detected
- Decomposition efficiency of glycitin family in concentrated soybean protein (pH3.7, heat treatment of enzyme: no, reaction time 3 h): not detected
- Decomposition efficiency of glycitin family in concentrated soybean protein (pH3.7, heat treatment of enzyme: no, reaction time 6 h): not detected
- Decomposition efficiency of glycitin family in concentrated soybean protein (pH3.7, heat treatment of enzyme: yes, reaction time 6 h): 52.4%
- Decomposition efficiency of glycitin family in roasted soy flour (pH4, heat treatment of enzyme no, reaction time 0 h): 56.6
- Decomposition efficiency of glycitin family in roasted soy flour (pH4, heat treatment of enzyme no, reaction time 1 h): not detected
- Decomposition efficiency of glycitin family in roasted soy flour (pH4, heat treatment of enzyme no, reaction time 3 h): not detected
- Decomposition efficiency of glycitin family in roasted soy flour (pH4, heat treatment of enzyme no, reaction time 6 h): not detected
- Decomposition efficiency of glycitin family in roasted soy flour (pH4, heat treatment of enzyme yes, reaction time 6 h): 55.1
- Decomposition efficiency of glycitin family in soymilk (pH4.8, heat treatment of enzyme no, reaction time 0 h): 50.7
- Decomposition efficiency of glycitin family in soymilk (pH4.8, heat treatment of enzyme no, reaction time 1 h): not detected
- Decomposition efficiency of glycitin family in soymilk (pH4.8, heat treatment of enzyme no, reaction time 3 h): not detected
- Decomposition efficiency of glycitin family in soymilk (pH4.8, heat treatment of enzyme no, reaction time 6 h): not detected
- Decomposition efficiency of glycitin family in soymilk (pH4.8, heat treatment of enzyme yes, reaction time 6 h): 54.3
- Decomposition efficiency of glycitin family in defatted soybean (pH4.8, heat treatment of enzyme: no, reaction time 0 h): not detected
- Decomposition efficiency of glycitin family in defatted soybean (pH4.8, heat treatment of enzyme: no, reaction time 1 h): not detected
- Decomposition efficiency of glycitin family in defatted soybean (pH4.8, heat treatment of enzyme: no, reaction time 3 h): not detected
- Decomposition efficiency of glycitin family in defatted soybean (pH4.8, heat treatment of enzyme: no, reaction time 6 h): not detected
- Decomposition efficiency of glycitin family in defatted soybean (pH4.8, heat treatment of enzyme: yes, reaction time 6 h): not detected
- Decomposition efficiency of glycitin family in roasted soy flour (pH5, heat treatment of enzyme no, reaction time 0 h): 56.6
- Decomposition efficiency of glycitin family in roasted soy flour (pH5, heat treatment of enzyme no, reaction time 1 h): not detected
- Decomposition efficiency of glycitin family in roasted soy flour (pH5, heat treatment of enzyme no, reaction time 3 h): not detected
- Decomposition efficiency of glycitin family in roasted soy flour (pH5, heat treatment of enzyme no, reaction time 6 h): not detected
- Decomposition efficiency of glycitin family in roasted soy flour (pH5, heat treatment of enzyme yes, reaction time 6 h): 55.4
- Decomposition efficiency of glycitin family in concentrated soybean protein (pH5.1, heat treatment of enzyme: no, reaction time 0 h): 52.4%
- Decomposition efficiency of glycitin family in concentrated soybean protein (pH5.1, heat treatment of enzyme: no, reaction time 1 h): 4.1%
- Decomposition efficiency of glycitin family in concentrated soybean protein (pH5.1, heat treatment of enzyme: no, reaction time 3 h): not detected
- Decomposition efficiency of glycitin family in concentrated soybean protein (pH5.1, heat treatment of enzyme: no, reaction time 6 h): not detected
- Decomposition efficiency of glycitin family in concentrated soybean protein (pH5.1, heat treatment of enzyme: yes, reaction time 6 h): 52.3%
- Decomposition efficiency of glycitin family in defatted soybean (pH5.4, heat treatment of enzyme: no, reaction time 0 h): not detected
- Decomposition efficiency of glycitin family in defatted soybean (pH5.4, heat treatment of enzyme: no, reaction time 1 h): not detected
- Decomposition efficiency of glycitin family in defatted soybean (pH5.4, heat treatment of enzyme: no, reaction time 3 h): not detected
- Decomposition efficiency of glycitin family in defatted soybean (pH5.4, heat treatment of enzyme: no, reaction time 6 h): not detected
- Decomposition efficiency of glycitin family in defatted soybean (pH5.4, heat treatment of enzyme: yes, reaction time 6 h): not detected
- Decomposition efficiency of glycitin family in soymilk (pH6.2, heat treatment of enzyme no, reaction time 0 h): 50.7
- Decomposition efficiency of glycitin family in soymilk (pH6.2, heat treatment of enzyme no, reaction time 1 h): not detected
- Decomposition efficiency of glycitin family in soymilk (pH6.2, heat treatment of enzyme no, reaction time 3 h): not detected
- Decomposition efficiency of glycitin family in soymilk (pH6.2, heat treatment of enzyme no, reaction time 6 h): not detected
- Decomposition efficiency of glycitin family in soymilk (pH6.2, heat treatment of enzyme yes, reaction time 6 h): 54.2
- Decomposition efficiency of glycitin family in roasted soy flour (pH6.5, heat treatment of enzyme no, reaction time 0 h): 55.9
- Decomposition efficiency of glycitin family in roasted soy flour (pH6.5, heat treatment of enzyme no, reaction time 1 h): not detected
- Decomposition efficiency of glycitin family in roasted soy flour (pH6.5, heat treatment of enzyme no, reaction time 3 h): not detected
- Decomposition efficiency of glycitin family in roasted soy flour (pH6.5, heat treatment of enzyme no, reaction time 6 h): not detected
- Decomposition efficiency of glycitin family in roasted soy flour (pH6.5, heat treatment of enzyme yes, reaction time 6 h): 54.8
- Decomposition efficiency of glycitin family in concentrated soybean protein [1]: 52.2%
- Decomposition efficiency of glycitin family in defatted soybean [1]: not detected
- Decomposition efficiency of glycitin family in concentrated soybean protein [2]: 22.6%
- Decomposition efficiency of glycitin family in defatted soybean [2]: not detected
- Decomposition efficiency of glycitin family in concentrated soybean protein [3]: 6.9%
- Decomposition efficiency of glycitin family in defatted soybean [3]: not detected
- Decomposition efficiency of glycitin family in concentrated soybean protein [4]: 2.0%
- Decomposition efficiency of glycitin family in defatted soybean [4]: not detected
- Decomposition efficiency of glycitin family in concentrated soybean protein [5]: 53.3%
- Decomposition efficiency of glycitin family in defatted soybean [5]: not detected
- Decomposition efficiency of glycitin family in soymilk (pH7.2, heat treatment of enzyme no, reaction time 0 h): 50.0
- Decomposition efficiency of glycitin family in soymilk (pH7.2, heat treatment of enzyme no, reaction time 1 h): not detected
- Decomposition efficiency of glycitin family in soymilk (pH7.2, heat treatment of enzyme no, reaction time 3 h): not detected
- Decomposition efficiency of glycitin family in soymilk (pH7.2, heat treatment of enzyme no, reaction time 6 h): not detected
- Decomposition efficiency of glycitin family in soymilk (pH7.2, heat treatment of enzyme yes, reaction time 6 h): 56.9
- Decomposition efficiency of glycitin family in defatted soybean (pH7.8, heat treatment of enzyme: no, reaction time 0 h): not detected
- Decomposition efficiency of glycitin family in defatted soybean (pH7.8, heat treatment of enzyme: no, reaction time 1 h): not detected
- Decomposition efficiency of glycitin family in defatted soybean (pH7.8, heat treatment of enzyme: no, reaction time 3 h): not detected
- Decomposition efficiency of glycitin family in defatted soybean (pH7.8, heat treatment of enzyme: no, reaction time 6 h): not detected
- Decomposition efficiency of glycitin family in defatted soybean (pH7.8, heat treatment of enzyme: yes, reaction time 6 h): not detected
- Decomposition efficiency of glycitin family in roasted soy flour (pH8.5, heat treatment of enzyme no, reaction time 0 h): 59.4
- Decomposition efficiency of glycitin family in roasted soy flour (pH8.5, heat treatment of enzyme no, reaction time 1 h): 39.4
- Decomposition efficiency of glycitin family in roasted soy flour (pH8.5, heat treatment of enzyme no, reaction time 3 h): 29.3
- Decomposition efficiency of glycitin family in roasted soy flour (pH8.5, heat treatment of enzyme no, reaction time 6 h): 22.4
- Decomposition efficiency of glycitin family in roasted soy flour (pH8.5, heat treatment of enzyme yes, reaction time 6 h): 59.2
- Decomposition efficiency of glycitin family in concentrated soybean protein (pH8.6, heat treatment of enzyme: no, reaction time 0 h): 54.9%
- Decomposition efficiency of glycitin family in concentrated soybean protein (pH8.6, heat treatment of enzyme: no, reaction time 1 h): 51.6%
- Decomposition efficiency of glycitin family in concentrated soybean protein (pH8.6, heat treatment of enzyme: no, reaction time 3 h): 45.9%
- Decomposition efficiency of glycitin family in concentrated soybean protein (pH8.6, heat treatment of enzyme: no, reaction time 6 h): 36.7%
- Decomposition efficiency of glycitin family in concentrated soybean protein (pH8.6, heat treatment of enzyme: yes, reaction time 6 h): 56.8%
- Decomposition efficiency of glycitin family in soymilk (pH11.6, heat treatment of enzyme no, reaction time 0 h): 54.3
- Decomposition efficiency of glycitin family in soymilk (pH11.6, heat treatment of enzyme no, reaction time 1 h): not detected
- Decomposition efficiency of glycitin family in soymilk (pH11.6, heat treatment of enzyme no, reaction time 3 h): not detected
- Decomposition efficiency of glycitin family in soymilk (pH11.6, heat treatment of enzyme no, reaction time 6 h): not detected
- Decomposition efficiency of glycitin family in soymilk (pH11.6, heat treatment of enzyme yes, reaction time 6 h): 59.7
SMILES: COc1cc2c(=O)c(-c3ccc(O)cc3)coc2cc1O[C@@H]1O[C@H](CO)[C@@H](O)[C@H](O)[C@H]1O [glycitin]

Source: patent US7118895B2, “Process for producing aglycon by using diglycosidase and flavor-improved food containing the aglycon and converting agent to be used in the process” (Amano Enzyme Inc., priority 2000, dated 2006)
